System: HBV
Test: HBV replication inhibition assay (BDNA assay) in HepG2.2.15 cells
Assay type: cell-based
Conditions: Hepatitis B virus, HepG2.2.15, HBV replication assay (BDNA assay), HepG2.2.15 cells; read-out: DNA EC50
In short: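 Supernatant encapsidated HBV DNA was measured by bDNA after DNase digestion and proteinase K release. Stably HBV-integrated HepG2.2.15 cells had two 3-day compound exposures (0.5% DMSO). Signals were background-subtracted and normalized to DMSO wells, and EC50 was obtained by four-parameter fit.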

SMILES	EC50
CN1OC(CNCC(F)F)Cn2nc3c(c2C1=O)CN(C(=O)Nc1ccc(F)c(Br)c1F)CC3 (single isomer, unassigned) [Compound 189_E1, (S*)—N-(3-bromo-2,4-difluorophenyl)-4-(((2,2-difluoroethyl)amino)methyl)-2-methyl-1-oxo-1,4,5,8,9,11-hexahydropyrido[4′,3′:3,4]pyrazolo[5,1-d][1,2,5]oxadiazepine-10(2H)-carboxamide]	1 to 100 nM
CN1OC(CNCC(F)F)Cn2nc3c(c2C1=O)CN(C(=O)Nc1ccc(F)c(Br)c1)CC3 (single isomer, unassigned) [Compound 190_E1, (S*)—N-(3-bromo-4-fluorophenyl)-4-(((2,2-difluoroethyl)amino)methyl)-2-methyl-1-oxo-1,4,5,8,9,11-hexahydropyrido[4′,3′:3,4]pyrazolo[5,1-d][1,2,5]oxadiazepine-10(2H)-carboxamide]	1 to 100 nM
CN1OC(CNCC(F)F)Cn2nc3c(c2C1=O)CN(C(=O)Nc1ccc(F)c(C(F)(F)F)c1F)CC3 (single isomer, unassigned) [Compound 191_E1, (S*)—N-(2,4-difluoro-3-(trifluoromethyl)phenyl)-4-(((2,2-difluoroethyl)amino)methyl)-2-methyl-1-oxo-1,4,5,8,9,11-hexahydropyrido[4′,3′:3,4]pyrazolo[5,1-d][1,2,5]oxadiazepine-10(2H)-carboxamide]	1 to 100 nM
CN1OC(CNCC(F)F)Cn2nc3c(c2C1=O)CN(C(=O)Nc1cc(Cl)c(F)cc1F)CC3 (single isomer, unassigned) [Compound 192_E1, (S*)—N-(5-chloro-2,4-difluorophenyl)-4-(((2,2-difluoroethyl)amino)methyl)-2-methyl-1-oxo-1,4,5,8,9,11-hexahydropyrido[4′,3′:3,4]pyrazolo[5,1-d][1,2,5]oxadiazepine-10(2H)-carboxamide]	1 to 100 nM
CN1OC(CNCC(F)F)Cn2nc3c(c2C1=O)CN(C(=O)Nc1cc(Br)c(F)cc1F)CC3 (single isomer, unassigned) [Compound 193_E1, (S*)—N-(5-bromo-2,4-difluorophenyl)-4-(((2,2-difluoroethyl)amino)methyl)-2-methyl-1-oxo-1,4,5,8,9,11-hexahydropyrido[4′,3′:3,4]pyrazolo[5,1-d][1,2,5]oxadiazepine-10(2H)-carboxamide]	1 to 100 nM
CN1OC(COCC(F)(F)F)Cn2nc3c(c2C1=O)CN(C(=O)Nc1ccc(F)c(C#N)c1)CC3 (single isomer, unassigned) [Compound 211, (S*)—N-(3-cyano-4-fluorophenyl)-2-methyl-1-oxo-4-((2,2,2-trifluoroethoxy)methyl)-1,4,5,8,9,11-hexahydropyrido[4′,3′:3,4]pyrazolo[5,1-d][1,2,5]oxadiazepine-10(2H)-carboxamide]	1 to 100 nM
CN1OC(COCC(F)F)Cn2nc3c(c2C1=O)CN(C(=O)Nc1ccc(F)c(C(F)(F)F)c1)CC3 (single isomer, unassigned) [Compound 212, (S*)-4-((2,2-difluoroethoxy)methyl)-N-(4-fluoro-3-(trifluoromethyl)phenyl)-2-methyl-1-oxo-1,4,5,8,9,11-hexahydropyrido[4′,3′:3,4]pyrazolo[5,1-d][1,2,5]oxadiazepine-10(2H)-carboxamide]	1 to 100 nM
CN1O[C@H](C[S@+](C)[O-])Cn2nc3c(c2C1=O)CN(C(=O)Nc1ccc(F)c(Cl)c1)CC3 (stereo in doubt) [Compound 049_E1, (S*)—N-(3-chloro-4-fluorophenyl)-2-methyl-4-(((S*)-methylsulfinyl)methyl)-1-oxo-1,4,5,8,9,11-hexahydropyrido[4′,3′:3,4]pyrazolo[5,1-d][1,2,5]oxadiazepine-10(2H)-carboxamide]	100 to 500 nM
CN1O[C@H](C[S@@+](C)[O-])Cn2nc3c(c2C1=O)CN(C(=O)Nc1ccc(F)c(Cl)c1)CC3 (stereo in doubt) [Compound 049_E2, (S*)—N-(3-chloro-4-fluorophenyl)-2-methyl-4-(((R*)-methylsulfinyl)methyl)-1-oxo-1,4,5,8,9,11-hexahydropyrido[4′,3′:3,4]pyrazolo[5,1-d][1,2,5]oxadiazepine-10(2H)-carboxamide]	1 to 100 nM

Reference: patent US10987359B2, “Oxadiazepinone derivatives and methods of treating hepatitis B infections” (priority 2016, dated 2021)
